Assay [1] deals with ADP-induced human platelet aggregation. The settings on record: read-out: IC50 for the inhibition of ADP-induced human platelet aggregation; cited from earlier work.
In assay [2] the target is T1, P2Y12 receptor (Homo sapiens, UniProt Q9H244). The settings on record: for percentage of inhibition: on clopidogrel at time of procedure; for percentage inhibition: clopidogrel naive, loaded with 600 mg. From the text: The VerifyNow™ System instrument is a turbidimetric-based optical detection system that measures platelet induced aggregation as an increase in light transmittance. The system includes an analyzer, disposable cartridge and controls. The cartridge contains reagents based on microparticle agglutination technology. The quality control system includes an electronic control, two levels of assayed “wet” controls (WQC), an in-cartridge humidity sensor, an in-packaging temperature indicator, and a test for concurrence of two assay channels. […] For use in the present methods the test cartridge of the system contains a lyophilized preparation comprising particles with passively bound GPIIb/IIIa receptor ligand, a composition of ADP and PGE1, and buffer. The patient sample is usually citrated whole blood, which is automatically dispensed from the blood collection tube into the cartridge by the analyzer, with no blood handling required by the user. The interaction is monitored by the infrared absorbency characteristics of the particles. As the particles interact with the platelets, the agglutination of the particles is measured through the optical system of the VerifyNow™ analyzer. The agglutination is detected as an increase in the transmission of infrared light through the sample. The reaction kinetics are analyzed and translated into “P2Y12 Response Units”, PRU.
Whole blood was obtained from the side port of the arterial sheath prior to anticoagulant or anti-thrombin therapy and by phlebotomy 12 hours post-PCI.
All patients received 325 mg uncoated aspirin the day of the procedure regardless of previous aspirin use. […] Either intra-procedural heparin (with a goal activated clotting time of >250 sec) or bivalirudin were administered during the procedure at operator discretion.
Patients were judged to be insulin resistant if their Homeostasis Model Assessment index, calculated as: [fasting insulin (μU/mL)]*[fasting glucose (mg/dl)]/405, was >3.0 or if they had diabetes requiring medication.

Assay [3] concerns the target T1, P2Y12 receptor. The assay can be described thus: VerifyNow P2Y12 assay, post-treatment platelet reactivity (PRU) in patients with sirolimus-eluting stents (Example 3). The class given is in vivo. Details: The patient sample is usually citrated whole blood; endogenous in cells; host or cells: platelets in citrated whole blood of patients. As to the method: Patients on clopidogrel therapy or who were clopidogrel naïve were eligible for inclusion. […] The assay contains […] and 22 nM prostaglandin E1 to reduce the activation contribution from ADP binding to P2Y1 receptors. […] With this assay, a higher PRU reflects greater ADP-mediated platelet reactivity. The mean coefficient of variation of test precision has been reported to be 3.2% in patients with coronary artery disease. Interventional strategy was at the discretion of the operator.

The next assay deals with platelet aggregation. The following applies: Muller et al. 2003; cited from earlier work.
The subject of assay [4] is patients undergoing PCI with DES. The procedure:
Interventional strategy was at the discretion of the operator. Either intra-procedural unfractionated heparin (with a goal-activated clotting time>250 s) or bivalirudin was used during the procedure. All patients received SES, and they received aspirin 325 mg on the day of the procedure regardless of previous aspirin use.
“Technical success” was defined as a final diameter stenosis ≦30% and thrombolysis in myocardial infarction (TIMI) flow grade 3. Clinical endpoints measured were cardiovascular (CV) death, non-fatal myocardial infarction (MI), and stent thrombosis. “MI over follow-up” was defined as any typical rise and fall of cardiac biomarkers in the setting of clinical signs or symptoms consistent with cardiac ischaemia, following the American College of Cardiology definition (Cannon, et al., J. Am. Coll. Cardiol. (2001) 38:2114-2130). The Academic Research Consortium definitions were used for “stent thrombosis” (definite, probable, and possible) (Mauri, et al., N. Engl. J. Med. (2007) 356:1020-1029). “Subacute stent thrombosis” was defined as stent thrombosis occurring after discharge to 30 day follow-up, and late-stent thrombosis was defined as stent thrombosis occurring between 30 day and 6 month follow-ups.
The computer-based analysis program SPSS (Statistical Package for the Social Sciences, 12.0 for PC, SPSS Inc., Chicago, Ill., USA) was used for statistical calculations. […] Comparison of continuous variables was performed using Student's t-test. The χ^2 test was used to detect differences in categorical variables, and a Fisher's exact test was used when any expected cell count was <5 for a 2 by 2 table. The Kolmogorov-Smirnov test was used to test for normality. A receiver-operating characteristic (ROC) curve analysis was used to determine the ability of the VERIFYNOW™ P2Y12 assay to distinguish between patients with and without post-discharge events after PCI. The optimal cut-off point was calculated by determining the post-treatment PRU that provided the greatest sum of sensitivity and specificity. Bootstrap validation was performed using R software. Survival curves were generated using the Kaplan-Meier method, and the difference between curves was assessed by log-rank test. A P-value<0.05 was considered significant.

Setting [5] is: after discharge, 6 month follow-up, all patients.
Where [6] appears, read: clopidogrel for minimum 3 months, high reactivity (n = 121).
Setting [7] is: clopidogrel for minimum 3 months, lower reactivity (n = 252).
The mark [8] stands for this setting: clopidogrel for minimum 3 months, overall group (n = 373).
[9] abbreviates: clopidogrel through 6 month follow-up, high reactivity (n = 108).
Setting [10] is: clopidogrel through 6 month follow-up, lower reactivity (n = 258).
Where [11] appears, read: clopidogrel through 6 month follow-up, overall group (n = 317).
[12] abbreviates: patients with high post-treatment reactivity.
[13] abbreviates: patients without high post-treatment reactivity.

Several values for one entry are separate records, joined by “and”; a condition that tells them apart may be missing. Identical values can stand only once. Like-named read-outs stand apart in the source and are kept apart here.

T1 sequence (Q9H244 whole entry): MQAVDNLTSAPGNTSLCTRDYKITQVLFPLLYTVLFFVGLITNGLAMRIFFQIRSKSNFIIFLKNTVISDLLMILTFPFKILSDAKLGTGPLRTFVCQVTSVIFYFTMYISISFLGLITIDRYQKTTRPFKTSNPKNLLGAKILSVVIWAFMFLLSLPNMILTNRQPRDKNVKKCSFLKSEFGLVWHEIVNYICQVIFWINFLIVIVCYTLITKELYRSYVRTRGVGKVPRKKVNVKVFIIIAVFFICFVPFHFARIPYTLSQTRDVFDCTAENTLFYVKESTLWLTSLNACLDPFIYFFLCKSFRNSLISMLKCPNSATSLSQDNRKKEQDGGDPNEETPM

By IC50 is commonly meant the concentration that gives 50% inhibition. `CCCCC[C@H](O)/C=C/[C@H]1[C@H](O)CC(=O)[C@@H]1CCCCCCC(=O)O` [PGE1, prostaglandin E1]: in assay [1], the IC50 is approximately 40 nM.

Turning to `COC(=O)[C@H](c1ccccc1Cl)N1CCc2sccc2C1` [clopidogrel], the percentage of inhibition on P2Y12 receptor [2] (Patient No. 1, acute thrombosis 80 minutes after PCI) worked out at 0%; at P2Y12 receptor [2] (Patient No. 2, sub-acute thrombosis 6 days following PCI) it was 0%. Besides, the percentage inhibition at P2Y12 receptor [2] (Patient No. 3, sub-acute thrombosis 34 days following PCI) is reported as 0%; at P2Y12 receptor [2] (Patient No. 4, sub-acute thrombosis 8 days following PCI), 44%. In addition, at P2Y12 receptor [2] (point-of-care assay, N = 280), the “share of patients undergoing PCI with clopidogrel-induced platelet inhibition <10%” value is “one quarter”. Further, the mean post-treatment reactivity at P2Y12 receptor [3] (all patients, n = 380) is on record as 184±85 PRU. The post-treatment reactivity at P2Y12 receptor [3] (clopidogrel-naive patients, 12 h after 600 mg loading dose) came out at 183±94 PRU; on P2Y12 receptor [3] (patients on previous clopidogrel therapy), 186±73 PRU. Besides, at P2Y12 receptor [3] (individual patients), the “post-treatment reactivity of the patients who had stent thrombosis while taking antiplatelet therapy” value was 283 PRU and 292 PRU and 236 PRU and 244 PRU and 271 PRU. Further, the platelet reactivity at P2Y12 receptor [3] (patients with adverse events) is 242 PRU; at P2Y12 receptor [3] (patients without adverse events) it was 186 PRU. In the assay with platelet aggregation, the “patients receiving the drug who did not achieve the expected platelet aggregation inhibition” value is “at least 10%”. In addition, the “overall rate of late-stent thrombosis” value in assay [4] (30 day to 6 month follow-up) is given as 0.8%. Further, the “Non-fatal MI” value was 1.3% in assay [4] (setting [5]); 2 (1.7) n (%) in assay [4] (setting [6]); 2 (0.8) n (%) in assay [4] (setting [7]); 4 (1.1) n (%) in assay [4] (setting [8]); 2 (1.9) n (%) in assay [4] (setting [9]); 2 (1.0) n (%) in assay [4] (setting [10]). Besides, the “Non-fatal MI” value in assay [4] (setting [11]) is 4 (1.3) n (%). Also, the “combined endpoint of CV death, non-fatal MI, or stent thrombosis” value in assay [4] (setting [5]) was 2.6%. Further, the “episodes of stent thrombosis” value in assay [4] (setting [5]) is 1.6%. For the same compound, the Stent thrombosis in assay [4] (setting [6]) is 5 (4.1) n (%); in assay [4] (setting [7]), 0 n (%); in assay [4] (setting [8]), 5 (1.3) n (%); in assay [4] (setting [9]), 5 (4.6) n (%); in assay [4] (setting [10]), 0 n (%); in assay [4] (setting [11]), 5 (1.6) n (%). For the same compound, the “overall rate of subacute stent thrombosis” value in assay [4] (discharge to 30 day follow-up) worked out at 0.8%. Moreover, the “rate of CV mortality” value in assay [4] (setting [12]) was 2.8%; in assay [4] (setting [13]), 0%. Besides, the “rate of all-cause death, non-fatal MI, or stent thrombosis” value was 6.5% in assay [4] (setting [12]) and 1.4% in assay [4] (setting [13]). Besides, the “rate of any stent thrombosis” value in assay [4] (setting [12]) amounted to 4.6%; in assay [4] (setting [13]), 0%. Besides, the entries for the “rate of combined endpoint of CV death, non-fatal MI, or stent thrombosis” value in assay [4] (setting [12]) and in assay [4] (setting [13]) were 6.5% and 1.0%, respectively. The “rate of definite or probable stent thrombosis” value in assay [4] (setting [12]) worked out at 2.8%; in assay [4] (setting [13]), 0%. Besides, the “survival rate free from the combined endpoint of CV death, non-fatal MI, or stent thrombosis” value was 91.4% in assay [4] (setting [12]) and 99.0% in assay [4] (setting [13]).

As for bivalirudin, in the assay with P2Y12 receptor [3] (patients receiving intra-procedural heparin or bivalirudin), the “post-treatment reactivity on clopidogrel by intra-procedural anticoagulant” value is 184±84 PRU.

(Values after patent US9506938B2, “Methods for measuring platelet reactivity of individuals treated with drug eluting stents” (ACCUMETRICS, INC., priority 2007, dated 2016).)
